Experimental data published in PubChem BioAssay (NCI).
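Each compound was tested at five concentrations against cells in 96-well plates for 48 hours. Here, GI50 denotes the concentration required for 50% inhibition of growth. TGI marks complete inhibition of growth.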

Experiments:
Test in all cases: growth of human tumour cells (NCI), 48 h
[1] = tested on: SW-620 colon
[2] = tested on: MDA-MB-231 breast
[3] = tested on: MALME-3M melanoma
[4] = tested on: PC-3 prostate
[5] = tested on: UACC-62 melanoma
[6] = tested on: HOP-62 NSCLC
[7] = tested on: NCI-H522 lung
[8] = tested on: M14 melanoma
[9] = tested on: TK-10 renal
[10] = tested on: NCI/ADR-RES ovarian
[11] = tested on: DU-145 prostate
[12] = tested on: OVCAR-5 ovarian
[13] = tested on: HT29 colon
[14] = tested on: SK-MEL-2 melanoma
[15] = tested on: KM12 colon
[16] = tested on: SF-295 CNS
[17] = tested on: SN12C renal
[18] = tested on: OVCAR-3 ovarian
[19] = tested on: SK-MEL-28 melanoma
[20] = tested on: 786-0 renal
[21] = tested on: COLO 205 colon
[22] = tested on: ACHN renal
[23] = tested on: HOP-92 NSCLC
[24] = tested on: A498 renal
[25] = tested on: HL-60(TB) leukemia
[26] = tested on: SF-539 CNS
[27] = tested on: NCI-H460 lung
[28] = tested on: SR leukemia
[29] = tested on: CAKI-1 renal
[30] = tested on: LOX IMVI melanoma
[31] = tested on: BT-549 breast
[32] = tested on: CCRF-CEM leukemia
[33] = tested on: T-47D breast
[34] = tested on: HS 578T breast
[35] = tested on: SNB-75 CNS
[36] = tested on: MDA-MB-435
[37] = tested on: MOLT-4 leukemia
[38] = tested on: K-562 leukemia
[39] = tested on: IGROV1 ovarian
[40] = tested on: SF-268 CNS
[41] = tested on: UO-31 renal
[42] = tested on: EKVX NSCLC
[43] = tested on: SK-OV-3 ovarian
[44] = tested on: A549 NSCLC
[45] = tested on: SK-MEL-5 melanoma
[46] = tested on: RPMI-8226 leukemia
[47] = tested on: OVCAR-8 ovarian
[48] = tested on: HCT-116 colon
[49] = tested on: RXF 393 renal
[50] = tested on: UACC-257 melanoma
[51] = tested on: NCI-H226 lung
[52] = tested on: NCI-H23 lung
[53] = tested on: SNB-19 CNS
[54] = tested on: U251 CNS
[55] = tested on: OVCAR-4 ovarian
[56] = tested on: MCF7 breast
[57] = tested on: HCT-15 colon

`COC(=O)c1ccc2nc(-c3cc4ccccc4n3C)n(CCCCOc3cc4c(cc3OC)C(=O)N3CCC[C@H]3C=N4)c2c1` was tested. Which GI50 [1] did it give?
The GI50 was 389 nM.

What about the TGI [1] of the same compound?
Its TGI is 1750 nM.

And the GI50 [2]?
Its GI50 is 366 nM.

And the TGI [2]?
The TGI was 2170 nM.

And the GI50 [3]?
The GI50 was 1070 nM.

And the TGI [3]?
Its TGI is 2830 nM.

And the GI50 [4]?
The GI50 was 457 nM.

And the TGI [4]?
Its TGI is 10.3 µM.

And the GI50 [5]?
Its GI50 is 211 nM.

And the TGI [5]?
The TGI was 625 nM.

What about the GI50 [6] of the same compound?
The GI50 was 905 nM.

And the TGI [6]?
The TGI was 3.76 µM.

What about the GI50 [7] of the same compound?
Its GI50 is 291 nM.

What about the TGI [7] of the same compound?
Its TGI is 1100 nM.

And the GI50 [8]?
The GI50 was 713 nM.

What about the TGI [8] of the same compound?
Its TGI is 2070 nM.

And the GI50 [9]?
The GI50 was 430 nM.

What about the TGI [9] of the same compound?
The TGI was 3.29 µM.

And the GI50 [10]?
Its GI50 is 3.02 µM.

What about the TGI [10] of the same compound?
Its TGI is 9.8 µM.

And the GI50 [11]?
Its GI50 is 234 nM.

What about the TGI [11] of the same compound?
The TGI was 564 nM.

And the GI50 [12]?
The GI50 was 811 nM.

What about the TGI [12] of the same compound?
Its TGI is 2060 nM.

And the GI50 [13]?
The GI50 was 929 nM.

What about the TGI [13] of the same compound?
The TGI was 5.49 µM.

What about the TGI [14] of the same compound?
The TGI was 631 nM.

And the GI50 [15]?
The GI50 was 255 nM.

And the TGI [15]?
Its TGI is 787 nM.

What about the GI50 [16] of the same compound?
The GI50 was 667 nM.

What about the TGI [16] of the same compound?
Its TGI is 4.85 µM.

What about the GI50 [17] of the same compound?
Its GI50 is 361 nM.

And the TGI [17]?
The TGI was 2170 nM.

And the GI50 [18]?
Its GI50 is 214 nM.

What about the TGI [18] of the same compound?
The TGI was 510 nM.

What about the GI50 [19] of the same compound?
The GI50 was 652 nM.

What about the TGI [19] of the same compound?
The TGI was 2300 nM.

What about the GI50 [20] of the same compound?
The GI50 was 789 nM.

What about the TGI [20] of the same compound?
Its TGI is 2460 nM.

What about the GI50 [21] of the same compound?
The GI50 was 575 nM.

And the TGI [21]?
Its TGI is 1460 nM.

What about the GI50 [22] of the same compound?
The GI50 was 1170 nM.

What about the TGI [22] of the same compound?
The TGI was 6.75 µM.

And the GI50 [23]?
The GI50 was 347 nM.

And the TGI [23]?
The TGI was 2770 nM.

And the GI50 [24]?
Its GI50 is 374 nM.

And the TGI [24]?
The TGI was 1730 nM.

And the GI50 [25]?
The GI50 was 273 nM.

What about the GI50 [26] of the same compound?
The GI50 was 881 nM.

And the TGI [26]?
Its TGI is 2430 nM.

What about the GI50 [27] of the same compound?
Its GI50 is 561 nM.

And the TGI [27]?
The TGI was 1550 nM.

And the GI50 [28]?
The GI50 was 643 nM.

What about the TGI [28] of the same compound?
Its TGI is greater than 100 µM.

And the GI50 [29]?
Its GI50 is 953 nM.

What about the TGI [29] of the same compound?
Its TGI is 4.85 µM.

And the GI50 [30]?
Its GI50 is 592 nM.

What about the TGI [30] of the same compound?
The TGI was 1740 nM.

What about the GI50 [31] of the same compound?
Its GI50 is 284 nM.

What about the TGI [31] of the same compound?
The TGI was 1130 nM.

And the GI50 [32]?
Its GI50 is 2530 nM.

And the TGI [32]?
Its TGI is greater than 100 µM.

What about the GI50 [33] of the same compound?
The GI50 was 751 nM.

And the TGI [33]?
The TGI was 3.51 µM.

What about the GI50 [34] of the same compound?
Its GI50 is 276 nM.

What about the TGI [34] of the same compound?
The TGI was 1420 nM.

And the GI50 [35]?
The GI50 was 339 nM.

And the TGI [35]?
Its TGI is 1350 nM.

What about the GI50 [36] of the same compound?
The GI50 was 677 nM.

And the TGI [36]?
Its TGI is 1770 nM.

And the GI50 [37]?
Its GI50 is 298 nM.

What about the GI50 [38] of the same compound?
The GI50 was 286 nM.

And the GI50 [39]?
The GI50 was 254 nM.

What about the TGI [39] of the same compound?
Its TGI is 889 nM.

What about the GI50 [40] of the same compound?
Its GI50 is 290 nM.

What about the TGI [40] of the same compound?
Its TGI is 925 nM.

What about the GI50 [41] of the same compound?
The GI50 was 389 nM.

And the TGI [41]?
Its TGI is 2190 nM.

And the GI50 [42]?
Its GI50 is 2410 nM.

And the TGI [42]?
The TGI was 6.46 µM.

And the GI50 [43]?
The GI50 was 1860 nM.

And the TGI [43]?
The TGI was 4.67 µM.

What about the GI50 [44] of the same compound?
The GI50 was 1500 nM.

And the TGI [44]?
The TGI was 10.3 µM.

And the GI50 [45]?
Its GI50 is 1210 nM.

And the TGI [45]?
The TGI was 2480 nM.

And the GI50 [46]?
The GI50 was 345 nM.

What about the TGI [46] of the same compound?
Its TGI is greater than 100 µM.

What about the GI50 [47] of the same compound?
Its GI50 is 800 nM.

And the TGI [47]?
Its TGI is 7.25 µM.

What about the GI50 [48] of the same compound?
Its GI50 is 528 nM.

And the TGI [48]?
Its TGI is 2610 nM.

What about the GI50 [49] of the same compound?
Its GI50 is 687 nM.

And the TGI [49]?
Its TGI is 2270 nM.

What about the GI50 [50] of the same compound?
The GI50 was 1170 nM.

What about the TGI [50] of the same compound?
Its TGI is 3.78 µM.

And the GI50 [51]?
The GI50 was 1230 nM.

And the TGI [51]?
Its TGI is 8.04 µM.

And the GI50 [52]?
The GI50 was 485 nM.

What about the TGI [52] of the same compound?
The TGI was 1210 nM.

What about the GI50 [53] of the same compound?
Its GI50 is 2150 nM.

What about the TGI [53] of the same compound?
The TGI was 7.07 µM.

And the GI50 [54]?
Its GI50 is 632 nM.

What about the TGI [54] of the same compound?
The TGI was 2080 nM.

What about the GI50 [55] of the same compound?
Its GI50 is 1540 nM.

What about the TGI [55] of the same compound?
Its TGI is 11.4 µM.

And the GI50 [56]?
Its GI50 is 292 nM.

What about the TGI [56] of the same compound?
The TGI was 1410 nM.

And the GI50 [57]?
The GI50 was 2410 nM.

And the TGI [57]?
Its TGI is 8.94 µM.
